Measurements reported in PubChem BioAssay AID2765 (Broad Institute, 2010).
Calls of active or inactive are those of the source.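 How the source made its calls: active means half-maximal concentration for the rise in caspase light signal at or below ten times the top tested dose; inconclusive means flat fit between 30% and 70% activity, or unreliable curve fit; inactive means the rest.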

Tested on: MEF A1-2A-BIM cells, caspase 3/7 luminescence, 3 h
Assay: inducers of caspase signal in A1-dependent MEFs – cell-based, luminescence, retest, A1 inhibitor project, dose response (AID 2765)

Structure (SMILES) | EC50
CCc1ccc2nc(N(CCCN(C)C)C(=O)c3ccc(S(=O)(=O)N4CCc5ccccc5C4)cc3)sc2c1 | > 35 µM (inactive)
O=C(NCc1cccnc1)[C@@H]1CC=C[C@@H]2CCN(Cc3ccccc3)C(=O)[C@@H]21 | > 35 µM (inactive)
O=C(CSc1ncccc1C(=O)O)NC1CCCCC1 | > 35 µM (inactive)
O=C(O)/C(=C\c1c(C(=O)O)[nH]c2cc(Cl)cc(Cl)c12)c1ccccc1 | > 35 µM (inactive)
Cc1cc(=O)oc2c1c(C)nn2-c1ccc(Cl)cc1 | > 35 µM (inactive)
O=C(/C=C/c1ccc(Br)cc1)c1ccc(NC2=NCCCS2)cc1 | > 35 µM (inactive)
O=C(O)c1ccccc1SCCS(=O)(=O)c1ccc(Cl)cc1Cl | > 35 µM (inactive)
O=C(CN(c1ccc(Br)cc1)S(=O)(=O)c1ccc(Cl)c([N+](=O)[O-])c1)NCCc1ccccc1 | > 35 µM (inactive)
O=[N+]([O-])/C=C/c1ccc2c(ccn2Cc2ccccc2)c1 | 12.3 µM
COc1ccccc1NC(=O)Nc1c(C)n(C)n(-c2ccccc2)c1=O | > 35 µM (inactive)
COC(=O)C1=C(C)N(Cc2ccccc2)C(=NCc2cc(OC)c(OC)c(OC)c2)N[C@H]1c1ccccc1 | > 35 µM (inactive)
O=C(COC(=O)c1ccccc1Br)NC1CCCCCCC1 | > 35 µM (inactive)
COc1ccc(N2CCN(C3CCCN(Cc4cccc(C(C)=O)c4)C3)CC2)cc1 (stereo not given) | > 35 µM (inactive)
Cc1occc1-c1nnc(SCC(=O)NCCc2ccccc2)n1Cc1ccccc1 | > 35 µM (inactive)
O=C(Cc1cn2ccsc2n1)Nc1cccc2cnccc12 | > 35 µM (inactive)
NC(=NCCCCCCN=C(N)/N=C(\N)Nc1ccc(Cl)cc1)/N=C(\N)Nc1ccc(Cl)cc1 | > 35 µM (inactive)
O=C(CCCOc1ccc(Cl)cc1Cl)Nc1ncccn1 | > 35 µM (inactive)
CCC1(C(=O)c2ccc(Cl)cc2)C2c3ccccc3OC(=O)C21C(=O)Nc1ccccc1 (stereo not given) | > 35 µM (inactive)
CC(=O)c1ccc(NC(=O)CO/N=C(\C)c2cccs2)cc1 | > 35 µM (inactive)
O=C(O)CCC(=NNC(=O)c1cccc(S(=O)(=O)N2CCCCC2)c1)c1ccccc1 | > 35 µM (inactive)
CCc1nnc(NC(=O)CSc2nc(-c3ccccc3)cc(-c3ccc(F)cc3)c2C#N)s1 | 24.2 µM
COCCN(C(=O)CSc1nc2ccccc2c(=O)n1C(C)COC)c1c(N)n(Cc2ccccc2)c(=O)[nH]c1=O (stereo not given) | > 35 µM (inactive)
CC1CCc2c(sc3nc(C(C)(C)C)nc(N4CCN(C(=O)CCl)CC4)c23)C1 (stereo not given) | 15.4 µM
COc1ccccc1C(=O)NCCC(=O)N1CCN(S(=O)(=O)c2ccc(Cl)cc2)CC1 | > 35 µM (inactive)

Structure (SMILES) | EC50
COc1ccc(Nc2cc3n(c(=O)n2)CCc2cc(OC)c(OC)cc2-3)c(C)c1 | > 35 µM (inactive)
NS(=O)(=O)c1ccc(N/N=C/c2cn(-c3ccccc3)nc2-c2ccccc2)c([N+](=O)[O-])c1 | 27.1 µM
Cc1ccc(S(=O)(=O)NCCN2CCOCC2)cc1 | > 35 µM (inactive)
Cc1cccc(NC(=S)NCCc2ccc(F)cc2)c1C | > 35 µM (inactive)
COc1cccc(/C=N/NC(=O)c2cc3cc([N+](=O)[O-])ccc3s2)c1O | > 35 µM (inactive)
Cc1csc(NC(=O)c2cccc(S(=O)(=O)N3CCN(C)CC3)c2)n1 | > 35 µM (inactive)
CCN(CC)C(=S)SCC(=O)Nc1ccc(F)cc1 | > 35 µM (inactive)
CCOC(=O)C[C@H]1c2ccccc2S(=O)(=O)N1Cc1cccc(C(F)(F)F)c1 | > 35 µM (inactive)
O=C(Nc1ccccc1C(=O)N1CCCCCC1)c1ccc(Cl)cc1 | > 35 µM (inactive)
COc1ccc(C(=O)/C=C/C(=O)N(CC(=O)NC2CCCCC2)Cc2cccs2)c(O)c1 | > 35 µM (inactive)
Cc1cc(C)n(-c2ccc(NC(=O)C3CCN(Cc4ccc(C)o4)CC3)cc2)n1 | > 35 µM (inactive)
CCS(=O)(=O)c1nc2ccccc2n1Cc1ccccn1 | > 35 µM (inactive)
Cc1ccc2c(C(=O)N3CCN(c4ccccc4)CC3)cc(-c3cccnc3)nc2c1C | > 35 µM (inactive)
NS(=O)(=O)c1ccc(-c2ccc(/C=C3\C(=O)Nc4ccccc43)o2)cc1 | > 35 µM (inactive)
O=C(c1cccc(F)c1F)N1CCCC1 | > 35 µM (inactive)
CCCn1c(=N)n(CCOc2ccc(OC)cc2)c2ccccc21 | > 35 µM (inactive)
Cc1ccc(CCNC(=O)c2cc(-c3ccncc3)nc3ccc(S(=O)(=O)N4CCOCC4)cc23)cc1 | > 35 µM (inactive)
CCOC(=O)N1CCN(C(=O)c2ccc3nc(N4CCC(C)CC4)sc3c2)CC1 | > 35 µM (inactive)
O=C(CSc1nccc(=O)[nH]1)Nc1ccccc1Sc1ccccc1 | > 35 µM (inactive)
CCCn1cc(S(=O)(=O)c2ccc(C)cc2)c(=O)c2cc(OC)c(OC)cc21 | > 35 µM (inactive)
O=C(Cc1ccc(-n2cccc2)cc1)NC1CCCCC1 | > 35 µM (inactive)
COc1ccc(OC)c(C2C(C(C)=O)=C(O)C(=O)N2Cc2cccnc2)c1 (stereo not given) | > 35 µM (inactive)
CCc1cc(C(=O)OCC(=O)N2CCC(c3ccccc3)=N2)sc1C | > 35 µM (inactive)
CS(=O)(=O)c1ncc(Cl)c(C(=O)Nc2ccc(N3CCOCC3)cc2)n1 | > 35 µM (inactive)

Structure (SMILES) | EC50
CCCCc1ccc(NC(=O)CN(C)CC(=O)Nc2ccccc2Cl)cc1 | > 35 µM (inactive)
CCOc1ccc(CNC2CCCCCCC2)cc1OC | > 35 µM (inactive)
O=C(Cn1c(C(F)(F)F)nc2ccccc21)N=Nc1c(O)[nH]c2ccc(Br)cc12 | 27.4 µM
CCCc1nc2sc3c(c2c(=O)n1N)CCC3 | > 35 µM (inactive)
CCOC(=O)c1sc(NC(=O)CSc2nc(C)cc(C)c2C#N)c(C#N)c1C | > 35 µM (inactive)
COc1ccc(C=C2C=C(C(C)(C)C)C(=O)C(C(C)(C)C)=C2)cc1OC | 5.77 µM
CCc1noc(C)c1C(=O)N(CC)CC(=O)NCc1ccc(Cl)cc1 | > 35 µM (inactive)
CCOc1cc2[nH]c(=S)n(CCCOC)c(=O)c2cc1OCC | > 35 µM (inactive)
Cc1cc(Cl)ccc1OCC(=O)OCC(=O)c1c(N)n(C)c(=O)n(C)c1=O | > 35 µM (inactive)
O=C(C1=C[C@H](c2coc3ccccc3c2=O)C[C@H](OCc2ccc(CO)cc2)O1)N1CCN(Cc2ccccc2)CC1 | > 35 µM (inactive)
COc1cc(Cl)c(C)cc1NC(=O)CSc1cc(Cl)ccc1Cl | > 35 µM (inactive)
CC1=C(C(N)=O)C(c2ccc3c(c2)OCO3)n2nc(-c3cccc(C)c3)nc2N1 (stereo not given) | > 35 µM (inactive)
N#C/C(=C\c1ccc(N2CCOCC2)o1)c1ccccc1 | > 35 µM (inactive)
O=C(COc1ccc(Br)cc1F)NCC1(N2CCCCC2)CCCCC1 | > 35 µM (inactive)
COc1cccc(CNC(=O)CN2C(=O)COc3ccc(S(=O)(=O)N4CCCCCC4)cc32)c1 | > 35 µM (inactive)
O=C1CC(C(=O)Nc2ccccc2)C2(CCCCC2)O1 (stereo not given) | > 35 µM (inactive)
Cc1cc(C)cc(N=Cc2c(O)c3ccccc3oc2=O)c1 | > 35 µM (inactive)
CN(C)Cc1ccc(O)c(CCc2ccccc2)n1 | > 35 µM (inactive)
FC(F)(F)c1ccc(Cl)c(NC2=NCCCCC2)c1 | > 35 µM (inactive)
CC(=O)c1cc(C#N)c(SCC(=O)Nc2nccs2)nc1C | > 35 µM (inactive)
CC(C)CC(NC(=O)c1ccc(Cl)cc1)C(=O)OCC(=O)c1ccc2c(c1)NC(=O)CO2 (stereo not given) | 5.35 µM
Cc1cc(N2C(=O)CCC2=O)n(-c2ccccc2)n1 | > 35 µM (inactive)
Cc1cc(=O)oc2c3c(cc(OCC(=O)N[C@@H](CC(C)C)C(=O)O)c12)OC(C)(C)CC3 | > 35 µM (inactive)
CC1(C)OC(=O)C(=Cc2ccc(-c3ccc(S(N)(=O)=O)cc3)o2)C(=O)O1 | > 35 µM (inactive)

Structure (SMILES) | EC50
COC(=O)c1ccc(NC(=O)CCN2CCN(c3ccccc3)CC2)cc1 | > 35 µM (inactive)
CCN(C[C@H]1N[C@@](CC)(C(=O)OC)[C@H]2C(=O)N(Cc3ccccc3)C(=O)[C@@H]12)C(=O)c1ccc(F)cc1 | > 35 µM (inactive)
CCOC(=O)c1cc(/C(C)=N/OC(=O)c2ccc(C(C)(C)C)cc2)on1 | > 35 µM (inactive)
Cc1cccc(NC(=S)N(Cc2cccc(Br)c2)CC2CCC(C(=O)O)CC2)c1 (stereo not given) | > 35 µM (inactive)
Cc1ccc(-n2nc3c(=O)n(CC(=O)NCCC4=CCCCC4)nc(C)c3c2C)cc1 | > 35 µM (inactive)
COc1ccc2c(-c3cc4ccc(OCc5ccc(F)cc5)cc4oc3=O)cc(=O)oc2c1 | 30.1 µM
COc1ccc(-n2ncc3c2CC(C)(C)CC3NC(=O)Cc2nonc2C)cc1 (stereo not given) | > 35 µM (inactive)
Cc1ccc(SCCNC(=S)Nc2cc(C)ccc2C)cc1 | > 35 µM (inactive)
CC(C)(C)c1ccc2c(c1)OC(C(=O)N/N=C\c1ccc[nH]1)CO2 (stereo not given) | > 35 µM (inactive)
COc1cc(C(=O)NCc2cc(C)nc3ccccc23)cc(OC)c1OC | > 35 µM (inactive)
N#C/C(=C\c1ccc(OCc2ccccc2)cc1)C(=O)Nc1nc2c(s1)CCN(Cc1ccccc1)C2 | > 35 µM (inactive)
Cc1cc(S(=O)(=O)N2CCCOC2CNC(=O)C(=O)NCc2ccco2)ccc1F (stereo not given) | > 35 µM (inactive)
Cc1cc(/C=C(/C#N)C(=O)O)c(C)n1-c1cccc2ccccc12 | > 35 µM (inactive)
Cc1ccc(C)c(NC(=S)NC(NC(=O)Cc2cccc3ccccc23)C(Cl)(Cl)Cl)c1 (stereo not given) | 5.84 µM
C[N+](C)(C)CCNC(=O)c1cc[n+](Cc2ccccc2)c(/C=N/O)c1 | > 35 µM (inactive)
CCCNC(=O)c1ccc(COc2ccc(Cl)cc2)o1 | > 35 µM (inactive)
CCS(=O)(=O)c1ncc(Cl)c(C(=O)Nc2ccc(S(=O)(=O)N(C)c3ccccc3)cc2)n1 | > 35 µM (inactive)
CCCCCCCCC(=O)NNC(=O)c1c(O)c2ccccc2n(CCC)c1=O | > 35 µM (inactive)
CCCS(=O)(=O)C/C(N)=N/OC(=O)c1ccc(Cl)cc1 | > 35 µM (inactive)
Cc1nccc2c1[nH]c1ccccc12 | > 35 µM (inactive)
CCN(CC)CCSc1nnc2c3ccccc3n(Cc3ccccc3)c2n1 | > 35 µM (inactive)
CCc1nn(-c2cc(Oc3cccc4ccccc34)nc(-c3ccccc3)n2)c(N)c1C#N | > 35 µM (inactive)
O=C(COc1ccc(/C=N/NC(=O)c2cc3ccccc3o2)cc1Cl)Nc1ccccc1 | 6.55 µM
